Reference: ChEMBL document CHEMBL5143685, “Valorisation of the diterpene podocarpic acid - Antibiotic and antibiotic enhancing activities of polyamine conjugates” (Bioorg Med Chem, 2022)

How the values were obtained:
Cryptococcus neoformans = assay: Antifungal activity against Cryptococcus neoformans ATCC 208821 assessed as fungal growth inhibition incubated for 36 hrs by resazurin dye based analysis; format: functional
Candida albicans = assay: Antifungal activity against Candida albicans ATCC 90028 assessed as fungal growth inhibition incubated for 36 hrs by resazurin dye based analysis; format: functional
Escherichia coli [1] = assay: Antibacterial activity against Escherichia coli ATCC 25922 assessed as inhibition of bacterial growth measured after 18 hrs by resazurin dye based analysis; format: functional
Pseudomonas aeruginosa = assay: Antibacterial activity against Pseudomonas aeruginosa ATCC 27853 assessed as inhibition of bacterial growth measured after 18 hrs by resazurin dye based analysis; format: functional
Acinetobacter baumannii = assay: Antibacterial activity against Acinetobacter baumannii ATCC 19606 assessed as inhibition of bacterial growth measured after 18 hrs by resazurin dye based analysis; format: functional
[2] = Cytotoxicity against HEK293 cells assessed as cell growth inhibition measured after 20 hrs by resazurin dye based assay; format: toxicity; settings: human
Klebsiella pneumoniae = assay: Antibacterial activity against Klebsiella pneumoniae ATCC 700603 assessed as inhibition of bacterial growth measured after 18 hrs by resazurin dye based analysis; format: functional
Staphylococcus aureus = assay: Antibacterial activity against methicillin-resistant Staphylococcus aureus ATCC 43300 assessed as inhibition of bacterial growth measured after 18 hrs by resazurin dye based analysis; format: functional
Escherichia coli [3] = assay: Antibiotic adjuvant activity against Escherichia coli ATCC 25922 assessed as erythromycin MIC measured after 18 hrs in presence of erythromycin; format: functional

Row | SMILES | MIC (Cryptococcus neoformans) [µM] | MIC (Candida albicans) [µM] | MIC (Escherichia coli [1]) [µM] | MIC (Pseudomonas aeruginosa) [µM] | MIC (Acinetobacter baumannii) [µM] | IC50 at 20 h [2] [µM] | MIC (Klebsiella pneumoniae) [µM] | MIC (Staphylococcus aureus) [µM] | MIC (Escherichia coli [3]) [µM]
1 | C[C@]1(C(=O)NCCCNCCCCCCCN)CCC[C@]2(C)c3cc(OC(=O)NCCCNCCCCCCCN)ccc3CC[C@@H]12.O=C(O)C(F)(F)F.O=C(O)C(F)(F)F.O=C(O)C(F)(F)F.O=C(O)C(F)(F)F | > 29.7 | > 29.7 | > 29.7 | > 29.7 | > 29.7 | > 28.7 | > 29.7 | > 28.7 | 50
2 | C[C@]1(C(=O)O)CCC[C@]2(C)c3cc(OC(=O)NCCCNCCCCCCCN)ccc3CC[C@@H]12.O=C(O)C(F)(F)F.O=C(O)C(F)(F)F | > 44.7 | > 44.7 | > 44.7 | > 44.7 | > 44.7 | > 44.7 | > 44.7 | > 44.7 | 
3 | COC(=O)[C@@]1(C)CCC[C@]2(C)c3cc(OC(=O)CCCNCCCCNCCCNC(=O)Oc4ccc5c(c4)[C@@]4(C)CCC[C@](C)(C(=O)OC)[C@@H]4CC5)ccc3CC[C@@H]12.O=C(O)C(F)(F)F.O=C(O)C(F)(F)F | 1.89 | 15.1 | 30.2 | > 30.2 | 30.2 | 16.4 | > 30.2 | 1.89 | 
4 | C[C@]1(C(=O)O)CCC[C@]2(C)c3cc(OC(=O)NCCCNCCCCCCN)ccc3CC[C@@H]12.O=C(O)C(F)(F)F.O=C(O)C(F)(F)F | > 45.6 | > 45.6 | > 45.6 | > 45.6 | > 45.6 | > 45.6 | > 45.6 | > 45.6 | 
5 | CCCCCNC(=O)[C@@]1(C)CCC[C@]2(C)c3cc(OC(=O)CCCNCCCCCCCNCCCNC(=O)Oc4ccc5c(c4)[C@@]4(C)CCC[C@](C)(C(=O)NCCCCC)[C@@H]4CC5)ccc3CC[C@@H]12.O=C(O)C(F)(F)F.O=C(O)C(F)(F)F | 3.3 | ≤ 0.21 | > 26.4 | > 26.4 | > 26.4 | > 26.4 | > 26.4 | ≤ 0.21 | 
6 | C[C@]1(C(=O)O)CCC[C@]2(C)c3cc(OC(=O)CCCNCCCCCCCCNCCCNC(=O)Oc4ccc5c(c4)[C@@]4(C)CCC[C@](C)(C(=O)O)[C@@H]4CC5)ccc3CC[C@@H]12.O=C(O)C(F)(F)F.O=C(O)C(F)(F)F | ≤ 0.23 | 14.7 | > 29.4 | > 29.4 | > 29.4 | > 29.4 | > 29.4 | > 29.4 | 
7 | C[C@]1(C(=O)NCCCNCCCCCCCN)CCC[C@]2(C)c3cc(O)ccc3CC[C@@H]12.O=C(O)C(F)(F)F.O=C(O)C(F)(F)F | > 47.6 | > 47.6 | > 47.6 | > 47.6 | > 47.6 | > 47.6 | > 47.6 | > 47.6 | 
8 | COC(=O)[C@@]1(C)CCC[C@]2(C)c3cc(OC(=O)CCCNCCCCCCCCNCCCNC(=O)Oc4ccc5c(c4)[C@@]4(C)CCC[C@](C)(C(=O)OC)[C@@H]4CC5)ccc3CC[C@@H]12.O=C(O)C(F)(F)F.O=C(O)C(F)(F)F | 0.45 | ≤ 0.22 | > 28.7 | > 28.7 | > 28.7 | > 28.7 | > 28.7 | ≤ 0.22 | 
9 | C[C@]1(C(=O)NCCCNCCCCCCCNCCCNC(=O)[C@@]2(C)CCC[C@]3(C)c4cc(O)ccc4CC[C@@H]23)CCC[C@]2(C)c3cc(O)ccc3CC[C@@H]12.O=C(O)C(F)(F)F.O=C(O)C(F)(F)F | 32.5 | 32.5 | 32.5 | > 32.5 | > 32.5 | 19.1 | > 32.5 | 32.5 | 
10 | COC(=O)[C@@]1(C)CCC[C@]2(C)c3cc(OC(=O)CCCNCCCCCCCCCCCCNCCCNC(=O)Oc4ccc5c(c4)[C@@]4(C)CCC[C@](C)(C(=O)OC)[C@@H]4CC5)ccc3CC[C@@H]12.O=C(O)C(F)(F)F.O=C(O)C(F)(F)F | 0.43 | ≤ 0.21 | > 27.3 | > 27.3 | > 27.3 | > 27.3 | > 27.3 | ≤ 0.21 | 
11 | C[C@]1(C(=O)NCCCNCCCCCCCCNCCCNC(=O)[C@@]2(C)CCC[C@]3(C)c4cc(O)ccc4CC[C@@H]23)CCC[C@]2(C)c3cc(O)ccc3CC[C@@H]12.O=C(O)C(F)(F)F.O=C(O)C(F)(F)F | 32 | 32 | 32 | > 32 | 32 | 18.1 | > 32 | 8 | 
12 | C[C@]1(C(=O)NCCCNCCCCCCNCCCNC(=O)[C@@]2(C)CCC[C@]3(C)c4cc(O)ccc4CC[C@@H]23)CCC[C@]2(C)c3cc(O)ccc3CC[C@@H]12.O=C(O)C(F)(F)F.O=C(O)C(F)(F)F | 32.9 | 32.9 | 32.9 | > 32.9 | > 32.9 | 28.6 | > 32.9 | 32.9 | 
13 | CCCCCNC(=O)[C@@]1(C)CCC[C@]2(C)c3cc(OC(=O)CCCNCCCCCCCCCCCCNCCCNC(=O)Oc4ccc5c(c4)[C@@]4(C)CCC[C@](C)(C(=O)NCCCCC)[C@@H]4CC5)ccc3CC[C@@H]12.O=C(O)C(F)(F)F.O=C(O)C(F)(F)F | ≤ 0.19 | ≤ 0.19 | > 25 | > 25 | > 25 | > 25 | > 25 | 1.56 | 
14 | CCCCCNC(=O)[C@@]1(C)CCC[C@]2(C)c3cc(OC(=O)CCCNCCCCCCCCNCCCNC(=O)Oc4ccc5c(c4)[C@@]4(C)CCC[C@](C)(C(=O)NCCCCC)[C@@H]4CC5)ccc3CC[C@@H]12.O=C(O)C(F)(F)F.O=C(O)C(F)(F)F | ≤ 0.2 | ≤ 0.2 | > 26.1 | > 26.1 | > 26.1 | > 26.1 | > 26.1 | 1.63 | 
15 | CCCCCNC(=O)[C@@]1(C)CCC[C@]2(C)c3cc(OC(=O)CCCNCCCCCCNCCCNC(=O)Oc4ccc5c(c4)[C@@]4(C)CCC[C@](C)(C(=O)NCCCCC)[C@@H]4CC5)ccc3CC[C@@H]12.O=C(O)C(F)(F)F.O=C(O)C(F)(F)F | 6.68 | 1.67 | > 26.7 | > 26.7 | > 26.7 | > 26.7 | > 26.7 | ≤ 0.21 | 
16 | CCCCCNC(=O)[C@@]1(C)CCC[C@]2(C)c3cc(OC(=O)CCCNCCCCNCCCNC(=O)Oc4ccc5c(c4)[C@@]4(C)CCC[C@](C)(C(=O)NCCCCC)[C@@H]4CC5)ccc3CC[C@@H]12.O=C(O)C(F)(F)F.O=C(O)C(F)(F)F | > 27.4 | 13.7 | > 27.4 | > 27.4 | > 27.4 | > 27.4 | > 27.4 | ≤ 0.21 | 
17 | CCCCCNC(=O)[C@@]1(C)CCC[C@]2(C)c3cc(OC(=O)CCCNCCCCCCCCCCNCCCNC(=O)Oc4ccc5c(c4)[C@@]4(C)CCC[C@](C)(C(=O)NCCCCC)[C@@H]4CC5)ccc3CC[C@@H]12.O=C(O)C(F)(F)F.O=C(O)C(F)(F)F | 3.19 | ≤ 0.2 | > 25.5 | > 25.5 | > 25.5 | > 25.5 | > 25.5 | ≤ 0.2 | 
18 | C[C@]1(C(=O)O)CCC[C@]2(C)c3cc(OC(=O)NCCCNCCCCCCCCN)ccc3CC[C@@H]12.O=C(O)C(F)(F)F.O=C(O)C(F)(F)F | > 43.8 | > 43.8 | > 43.8 | > 43.8 | > 43.8 | > 43.8 | > 43.8 | > 43.8 | 
